Assay results as given in patent publication US12466821B2 (Novartis AG, priority 2018, dated 2025).

Assays:
[1] = test system: Luciferase-encoding HCMV, AD169 strain; test: CMV Luciferase assay (cellular herpesvirus replication); format: cell-based; settings: Human betaherpesvirus 5, AD169, read-out: CMV-Luc Cellular EC50
In short: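 Neonatal human dermal fibroblasts were pretreated 1 h with compound (final 0.0159–50 μM or 0.00318–10 μM, 0.5% DMSO), then infected at MOI 1 with AD169 carrying pp28-promoter luciferase. After 72 h at 37 °C, Renilla-Glo luminescence normalized to no-virus and virus-only controls; EC50 by 4-parameter logistic model.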

[2] = target: human CMV DNA polymerase UL54 (Human cytomegalovirus (strain AD169) (HHV-5) (Human herpesvirus 5), UniProt P08546); test: CMV polymerase biochemical assay (molecular beacon-based)
In short: (§1)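 Readout was beacon fluorescence (ex 480, em 535 nm), used to derive IC50. Each dNTP was at 1.25 uM, with 200 nM primer and 100 nM beacon, after a 30-min RT inhibitor preincubation. Enzyme was 625 pM for HSV UL30 (20 min RT reaction) or 100 pM for CMV UL54 (60 min RT), both sf9-expressed MBP fusions, in pH 7.5 Tris buffer with MgCl2.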

[3] = target: human HSV DNA polymerase UL30 (Human herpesvirus 1 (strain 17) (HHV-1) (Human herpes simplex virus 1), UniProt P04293); test: HSV polymerase biochemical assay (molecular beacon-based)
In short: as §1

SMILES	EC50 [1] [nM]	IC50 [2] [nM]	IC50 [3] [nM]
CC(C)(C)[S+]([O-])C1(CN2CCn3c(ccc(C(=O)NCc4ccc(C#N)cc4)c3=O)C2=O)CC1 (stereo not drawn) [Example 106, 2-((1-(tert-Butylsulfinyl)cyclopropyl)methyl)-N-(4-cyanobenzyl)-1,6-dioxo-2,3,4,6-tetrahydro-1H-pyrido[1,2-a]pyrazine-7-carboxamide]	1120	33.4	972
Cc1cc(C(=O)NCc2ccc(C#N)c(F)c2)c(=O)n2c1C(=O)N(CC1(S(C)(=O)=O)CC1)CC2 [Example 86-2]	226	4.6	276
N#Cc1ccc(CNC(=O)c2ccc3n(c2=O)CCN(CC2(S(=O)(=O)C4CCCC4)CC2)C3=O)cc1 [Example 22]	88.8	1.9	56.3
CS(=O)(=O)N1CCC[C@@H]1CN1CCn2c(ccc(C(=O)NCc3ccc(Cl)cc3)c2=O)C1=O [Example 63]	12300	420	19800
CCS(=O)(=O)N(C)CCN1CCn2c(ccc(C(=O)NCc3ccc(Cl)cc3)c2=O)C1=O [Example 59]	1640	138	1480
N#Cc1ccc(CNC(=O)c2ccc3n(c2=O)CCN(CC2(S(=O)(=O)C4CC4(F)F)CC2)C3=O)cc1Cl (stereo not drawn) [Example 98-3]	102	1.7	200
CCc1cc(C(=O)NCc2ccc(Cl)cc2)c(=O)n2c1C(=O)N(CCN(C)S(C)(=O)=O)CC2 [Example 134, N-(4-chlorobenzyl)-9-ethyl-2-(2-(N-methylmethylsulfonamido)ethyl)-1,6-dioxo-1,3,4,6-tetrahydro-2H-pyrido[1,2-a]pyrazine-7-carboxamide]	2870	268	2120
CS(=O)(=O)CCN1CCn2c(c(Br)cc(C(=O)NCc3ccc(Cl)cc3)c2=O)C1=O [Example 117, 9-bromo-N-(4-chlorobenzyl)-2-(2-(methylsulfonyl)ethyl)-1,6-dioxo-1,3,4,6-tetrahydro-2H-pyrido[1,2-a]pyrazine-7-carboxamide]	1440	285	577
COC(=O)N(C)CCN1CCn2c(ccc(C(=O)NCc3ccc(Cl)cc3)c2=O)C1=O [Example 61-1]	5000	740	10800
CN(CCN1CCn2c(c(CO)cc(C(=O)NCc3ccc(Cl)cc3)c2=O)C1=O)S(C)(=O)=O [Example 137, N-(4-chlorobenzyl)-9-(hydroxylmethyl)-2-(2-(N-methylmethylsulfonamido)ethyl)-1,6-dioxo-1,3,4,6-tetrahydro-2H-pyrido[1,2-a]pyrazine-7-carboxamide]	19700	348	3900
C[S@+]([O-])C1(CN2CCn3c(ccc(C(=O)NCc4ccc(C#N)cc4)c3=O)C2=O)CC1 [Example 68-3]	7560	198	9190
N#Cc1ccc(CNC(=O)c2ccc3n(c2=O)CCN(CC2(S(=O)(=O)N4CCC4)CC2)C3=O)cc1F [Example 88-1, 2-((1-(azetidin-1-ylsulfonyl)cyclopropyl)methyl)-N-(4-cyano-3-fluorobenzyl)-1,6-dioxo-2,3,4,6-tetrahydro-1H-pyrido[1,2-a]pyrazine-7-carboxamide]	24.2	2	65.1
CN(C(C)(C)C)S(=O)(=O)C1(CN2CCn3c(ccc(C(=O)NCc4ccc(Cl)cc4)c3=O)C2=O)CC1 [Example 74-1]	13.7	0.4	22.7
CC(=O)N(C)C1(CN2CCn3c(ccc(C(=O)NCc4ccc(Cl)cc4)c3=O)C2=O)CC1 [Example 205]	3760	249	8590
CN(CCN1CCn2c(c(CF)cc(C(=O)NCc3ccc(Cl)cc3)c2=O)C1=O)S(C)(=O)=O [Example 140, N-(4-chlorobenzyl)-9-(fluoromethyl)-2-(2-(N-methylmethylsulfonamido)ethyl)-1,6-dioxo-1,3,4,6-tetrahydro-2H-pyrido[1,2-a]pyrazine-7-carboxamide]	2220	242	4260
N#Cc1ccc(CNC(=O)c2ccc3n(c2=O)CCN(CC2(S(=O)(=O)N4CC(F)(F)C4)CC2)C3=O)cc1F [Example 84-2]	54.8	2.8	80.6
CC1(CS(=O)(=O)C2(CN3CCn4c(ccc(C(=O)NCc5ccc(C#N)c(F)c5)c4=O)C3=O)CC2)CC1 [Example 109, N-(4-cyano-3-fluorobenzyl)-2-((1-(((1-methylcyclopropyl)methyl)sulfonyl)cyclopropyl)methyl)-1,6-dioxo-1,3,4,6-tetrahydro-2H-pyrido[1,2-a]pyrazine-7-carboxamide]	112	3.2	121
O=C(NCc1ccc(Cl)cc1)c1ccc2n(c1=O)CCN(CC1(S(=O)(=O)C3CC3)CC1)C2=O [Example 2]	8.1	0.2	15.5

SMILES	EC50 [1] [nM]	IC50 [2] [nM]	IC50 [3] [nM]
N#Cc1ccc(CNC(=O)c2cc(F)c3n(c2=O)CCN(CC2(S(=O)(=O)C4CC4)CC2)C3=O)cc1F [Example 162]	41.3	1.9	79.6
O=C(NCc1ccc(Cl)cc1)c1ccc2n(c1=O)CCN(CC1(N3CCCCC3=O)CC1)C2=O [Example 202]	7650	305	6470
CN(CCN1CCn2c(c(C#N)cc(C(=O)NCc3ccc(Cl)cc3)c2=O)C1=O)S(C)(=O)=O [Example 127]	19900	545	4790
CS(=O)(=O)C1(CN2CCn3c(c(C4CC4)cc(C(=O)NCc4ccc(Cl)cc4)c3=O)C2=O)CC1 [Example 132]	70.7	3.1	138
O=C(NCc1ccc(Cl)cc1)c1cc(C(F)(F)F)c2n(c1=O)CCN(CCN1CCCS1(=O)=O)C2=O [Example 147]	21400	558	5050
N#Cc1ccc(CNC(=O)c2ccc3n(c2=O)CCN(CC2(S(=O)(=O)[C@H]4CC4(F)F)CC2)C3=O)cc1 (single isomer, unassigned) [Example 100-1]	93.6	1.4	48.2
CN(CCN1CCn2c(ccc(C(=O)NCc3ccc(Cl)cc3)c2=O)C1=O)S(C)(=O)=O [Example 58, N-(4-chlorobenzyl)-2-(2-(N-methylmethylsulfonamido)ethyl)-1,6-dioxo-2,3,4,6-tetrahydro-1H-pyrido[1,2-a]pyrazine-7-carboxamide]	883	75.6	846
N#Cc1ccc(CNC(=O)c2ccc3n(c2=O)CCN(CCS(=O)(=O)C2CC2)C3=O)cc1F [Example 195]	2610	67.1	649
O=C(NCc1ccc(Cl)cc1)c1ccc2n(c1=O)CCN(CC1(S(=O)(=O)C3CNC3)CC1)C2=O [Example 19]	538	3.9	149
N#Cc1ccc(CNC(=O)c2ccc3n(c2=O)CCN(CC2(S(=O)(=O)CC4(C(F)(F)F)CC4)CC2)C3=O)cc1 [Example 104-2]	1820	24.3	301
N#Cc1ccc(CNC(=O)c2ccc3n(c2=O)CCN(CC2(S(=O)(=O)CC4(C#N)CC4)CC2)C3=O)cc1F [Example 112]	187	2.2	44.1
CS(=N)(=O)C1(CN2CCn3c(ccc(C(=O)NCc4ccc(Cl)cc4)c3=O)C2=O)CC1 (stereo not drawn) [Example 95, N-(4-chlorobenzyl)-2-((1-(S-methylsulfonimidoyl)cyclopropyl)methyl)-1,6-dioxo-2,3,4,6-tetrahydro-1H-pyrido[1,2-a]pyrazine-7-carboxamide]	263	16.6	722
O=C(NCc1ccc(F)c(F)c1)c1ccc2n(c1=O)CCN(CC1(S(=O)(=O)C3CC3)CC1)C2=O [Example 3-3]	64	7.9	149
O=C(NCc1ccc(Cl)cc1)c1ccc2n(c1=O)CCN(CC1(S(=O)(=O)N3CC(F)(F)C3)CC1)C2=O [Example 84-3]	31	1.4	52.6
CC(C)(C)NS(=O)(=O)C1(CN2CCn3c(ccc(C(=O)NCc4ccc(Cl)cc4)c3=O)C2=O)CC1 [Example 72-1, 2-((1-(N-(tert-butyl)sulfamoyl)cyclopropyl)methyl)-N-(4-chlorobenzyl)-1,6-dioxo-2,3,4,6-tetrahydro-1H-pyrido[1,2-a]pyrazine-7-carboxamide]	29.2	0.6	23.5
Cc1cc(C(=O)NCc2ccc(Cl)cc2)c(=O)n2c1C(=O)N(CCN(C)S(C)(=O)=O)CC2 [Example 148, N-(4-chlorobenzyl)-9-methyl-2-(2-(N-methylmethylsulfonamido)ethyl)-1,6-dioxo-1,3,4,6-tetrahydro-2H-pyrido[1,2-a]pyrazine-7-carboxamide]	1660	181	1510
N#Cc1ccc(CNC(=O)c2ccc3n(c2=O)CCN(CC2(S(=O)(=O)C4(C(F)F)CC4)CC2)C3=O)cc1Cl [Example 99-3]	172	0.8	201
O=C(NCc1ccc(Cl)cc1)c1ccc2n(c1=O)CCN(CCS(=O)(=O)C1CC1)C2=O [Example 193]	1240	34.1	420
